Data as given in patent US20140294849A1, “COMPOSITIONS AND USES” (GLAXOSMITHKLINE BIOLOGICALS SA, priority 2011, published 2014).
No end group written: not given here.

How the values were obtained:
BV2 microglia cells = assay: In vitro phagocytosis of Aβ1-42 in BV2 cells, Western blot; assay type: cell-based, mouse; conditions: Example 16; 5 μg/mL cytochalasin D
Experimental: For total Aβ detection, 10-30 μg of cell extracts were separated on a precast 10-20% SDS polyacrylamide Tris-Tricine gel (Bio-Rad, Canada). Separated proteins were then transferred onto polyvinylidene fluoride (PVDF) membranes (PerkinElmer, Canada). Membrane were incubated in DPBS (Gibco, USA) at 90° C. for 10 min. Membrane were then incubated for 1 hour in blocking solution, which consist in TBS-T (50 mM Tris-HCl pH 8.0; 150 mM NaCl; 0.05% Tween 20) supplemented with 1% BSA (Sigma, Canada) and 5% non-fat dry milk, and probed for 16 hours at 4° C. with a mouse anti-amyloid beta protein monoclonal antibody clone 6E10 (Covance, USA) diluted to 1:1000 in TBS-T supplemented with 5% BSA and 0.02% sodium azide. Membranes were washed once for 15 min and three times for 5 min in TBS-T at room temperature. […] Films were digitalized using a HP Scanjet 4370 (HP) and signal intensity was measured using ImageJ (version 1.44p, NIH).
Aβ specific antibodies stimulate the uptake of soluble Aβ1-42 toxic peptides in an actin polymerization-dependent mechanism. […] Cells were incubated for the indicated period of time, resuspended by trypsinization, collected, solubilised in lysis buffer and further analyzed by immunoblotting. […]

AD-like neuropathologies = conditions: Schenk D. et al, 1999; cited from earlier work
Aβ42 = assay: Anti Aβ42 specific immunogenicity in TASTPM mice; assay type: in vivo; conditions: Example 24; 12 injections of 10 ug, intramuscular
Experimental: Whole blood is collected from mice and centrifuged on a vacutainer blood collection tube containing gel for serum separation. Serum samples are stored at −80° C. Streptavidin-coated plates (Greiner Bio-One, Germany) are first coated with beta-amyloid (1-42)-Lys(Biotin)-NH2 peptide (Anaspec, Inc.) at 0.5 μg/mL, using 50 mM sodium carbonate buffer, overnight at 4° C. Plates are then washed using a 4 times using PBS/0.05% Tween 20. Super Block (ScyTek laboratories) is added to the plates and incubated at 37° C. for at least one hour. Serum samples and standard (anti Aβ42 antibody (6E10 antibody, Covance, Inc.) are serially diluted in the plates and incubated at 37° C. for 2 hours. After a wash step, diluted peroxidase AffiniPure goat anti-mouse IgG, Fcγ fragment specific (Jackson ImmunoResearch Laboratories Inc.) is added for 1 hour at 37° C. A last wash is performed before adding TMB substrate reagent (BD OptEIA™, BD Biosciences) for 30 min at RT. Immediately, plates are stopped using 2N sulfuric acid, and then read at 450 nm using SpectraMax microplate reader (Molecular Devices, Inc.).
High and specific anti Aβ42 specific immunogenicity is promoted by a TLR2 containing adjuvant fused to the first six amino acid of Aβ in the amyloid deposition mouse model (TASTPM) following 12 injections of 10 ug of the Pam3Cys—SQ EPAAPAAEAT PAAEAP DAEFRH (SEQ ID NO:9) using the intramuscular route.

working memory = assay: T-water maze in TASTPM mice; assay type: in vivo; conditions: Example 25; 12 weekly i.m. injections; vs PBS
Experimental: Mice were tested during the “light on” phase of the day. Behavioral experimenter was blinded to the genetic and treatment status of animals. To assess hippocampal-dependent spatial learning and memory, mice were trained in the T-water maze task. In this paradigm, we evaluate the mouse's ability to remember the spatial location of submerged platform. The T-maze apparatus (length of stem, 64 cm; length of arms, 30 cm; width, 12 cm; height of walls, 16 cm) was made of clear fiberglass and filled with water (23±1° C.) at a height of 12 cm. A platform (11×11 cm) was placed at the end of the target arm and was submerged 1 cm below the surface. The acquisition phase allows to evaluate animals for left-right spatial learning. During the first two trials, platforms were placed on each arms of the maze to test the spontaneous turning preference of the mouse. After these two trials, the least chosen arm was reinforced by the escape platform. […] The number of trials to reach the criterion (five of five correct choices made on consecutive trials) was measured as well as the latency to find the escape platform.
To determine whether a TLR2 agonist will improve the cognitive impairment in TASTPM mice, the Pam3CysLip adjuvant fused to the Aβ1-6 peptide was injected 12 times at weekly basis using the intramuscular route and the memory was assessed using the T-water maze test. […]

TASTPM mice = assay: Survival rate of TASTPM mouse model; assay type: in vivo; conditions: Example 26; weekly injections; followed for 112 days
From the text: The usage of the TLR2 agonist, i.e. Pam3CysLip Aβ1-6 peptide, improves the survival rate of TASTPM mouse model. 23 out of 25 mice survived after weekly injections of Pam3CysLip Aβ1-6 peptide compared to PBS injected animals in which only 13 out 25 TASTPM mice survived (followed for 112 days).

**Q.** For C=C1[C@@H](C)[C@H]2[C@H](Cc3ccccc3)NC(=O)[C@]23[C@H](OC(C)=O)/C=C/[C@@](C)(O)C(=O)[C@@H](C)C/C=C/[C@H]3[C@@H]1O [cytochalasin D], which “effect on 2E7-increased cellular uptake of Aβ1-42” value (BV2 microglia cells) is on record?
**A.** inhibited

**Q.** With “synthetic human Aβ1-42: synthetic human Aβ1-42 used to immunize PDAPP mice” as the compound, how does the AD-like neuropathologies (AD-like neuropathologies) read?
**A.** reduce the extent and progression of AD-like neuropathologies

**Q.** Which results are given for “Pam3Cys—SQ EPAAPAAEAT PAAEAPDAEFRH (Pam3Cys-SQEPAAPAAEATPAAEAPDAEFRH) [Pam3CysLip Aβ1-6]”?
**A.** Aβ42 specific immunogenicity (Aβ42): High Aβ42 specific Immunogenicity; right-left discrimination tests, T-water maze (working memory): trend of improvement; mice survived (TASTPM mice): 23 out of 25
